Source: US5395947A, “Platinum(II) complex and processes for preparing the same” (Sunkyong Industries, Ltd., priority 1991, dated 1995)

Columns and labels:
[1] = test system: murine leukemia L1210 cells; test: Growth inhibition test on cultured murine leukemia L1210 cells; type: cell-based; conditions: 48 hours, 37° C., Trypan blue viability
Procedure, shortened: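 L1210 cells (1×10^5) exposed to graded compound concentrations in RPMI 1640 with 10% fetal calf serum, 37° C, 5% CO2, 48 h. Viability by 0.17% Trypan blue staining, relative to untreated control cells.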

murine leukemia L1210 = test: Antitumor activity test on murine leukemia L1210 in vivo; set-up: species or system male BDF1 mice; conditions: days 1, 5, 9
Procedure, shortened: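 Intraperitoneal L1210 model: 1×10^6 cells inoculated i.p. into 6-week-old male BDF1 mice (21±3 g) on day 0, seven per group. Compounds in 0.5% CMC given i.p. on days 1, 5 and 9; vehicle-only controls. T/C % from mean survival time of treated over control.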

[2] = Test for water solubility; type: physicochemical; conditions: water
Description: 3. Test for water solubility
A standard plot of UV absorbance(220 nm) vs. concentration was made; and employed to determine water-solubility.
The mixture was then passed through a 0.45 micron disposable membrane filter before dilution and UV measurement.

ICR mice = test: Acute toxicity test; type: in vivo; set-up: Lethality: unit not given here; conditions: for Lethality: 10080 min
Procedure, shortened: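 Male and female 7-week-old ICR mice, 6 per group, dosed intraperitoneally. Signs and survival followed for 7 days, with autopsy of animals that died.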

## CCC1OC2C[NH2+][Pt-2]3([NH2+]CC2O1)[O]C(=O)C1(CCC1)C(=O)[O]3 [Example 24, cis-cyclobutane-1,1-dicarboxylato[(4R,5R)-4,5-bis(aminomethyl)-2-ethyl-1,3-dioxolane]platinum(II)]
[1]
  IC50 (concentration required for 50% inhibition of growth): 0.55 µg/mL
Murine leukemia L1210; 6.2 mg/kg i.p.
  T/C (%): 122%
Murine leukemia L1210; 12.5 mg/kg i.p.
  T/C (%): 130%
Murine leukemia L1210; 25 mg/kg i.p.
  T/C (%): 193%
Murine leukemia L1210; 50 mg/kg i.p.
  T/C (%): 208%
Murine leukemia L1210; 100 mg/kg i.p.
  T/C (%): 391%
[2]
  Solubility in water: 12000 µg/mL
ICR mice; female, 160 mg/kg i.p.
  Number of dead mice for 7 days: 0/6
  Number of dead mice, 1st day: 0/6
ICR mice; female, 208 mg/kg i.p.
  Number of dead mice for 7 days: 0/6
  Number of dead mice, 1st day: 0/6
ICR mice; female, 270 mg/kg i.p.
  Number of dead mice for 7 days: 3/6
  Number of dead mice, 1st day: 0/6
  Number of dead mice, 2nd day: 1/6
  Number of dead mice, 3rd day: 1/5
  Number of dead mice, 5th day: 1/4
  Lethality: 50.0
ICR mice; female, 352 mg/kg i.p.
  Number of dead mice for 7 days: 5/6
  Number of dead mice, 1st day: 0/6
  Number of dead mice, 3rd day: 3/6
  Number of dead mice, 4th day: 2/3
  Lethality: 83.3
ICR mice; female, 457 mg/kg i.p.
  Number of dead mice for 7 days: 6/6
  Number of dead mice, 1st day: 0/6
  Number of dead mice, 2nd day: 4/6
  Number of dead mice, 3rd day: 2/2
  Lethality: 100.0
ICR mice; male, 160 mg/kg i.p.
  Number of dead mice for 7 days: 0/6
  Number of dead mice, 1st day: 0/6
ICR mice; male, 208 mg/kg i.p.
  Number of dead mice for 7 days: 1/6
  Number of dead mice, 1st day: 0/6
  Number of dead mice, 3rd day: 1/6
  Lethality: 16.7
ICR mice; male, 270 mg/kg i.p.
  Number of dead mice for 7 days: 5/6
  Number of dead mice, 1st day: 0/6
  Number of dead mice, 2nd day: 1/6
  Number of dead mice, 3rd day: 2/5
  Number of dead mice, 4th day: 1/3
  Number of dead mice, 5th day: 1/2
  Lethality: 83.3
ICR mice; male, 352 mg/kg i.p.
  Number of dead mice for 7 days: 6/6
  Number of dead mice, 1st day: 1/6
  Number of dead mice, 2nd day: 2/5
  Number of dead mice, 3rd day: 2/3
  Number of dead mice, 6th day: 1/1
  Lethality: 100.0
ICR mice; male, 457 mg/kg i.p.
  Number of dead mice for 7 days: 6/6
  Number of dead mice, 1st day: 0/6
  Number of dead mice, 2nd day: 2/6
  Number of dead mice, 3rd day: 4/6
  Lethality: 100.0

## CC1(C)OC2C[NH2+][Pt-2]3([NH2+]CC2O1)[O]C(=O)C1(CCC1)C(=O)[O]3 [Example 26, cis-cyclobutane-1,1-dicarboxylato[(4R,5R)-4,5-bis(aminomethyl)-2,2-dimethyl-1,3-dioxolane]platinum(II)]
[1]
  IC50 (concentration required for 50% inhibition of growth): 0.65 µg/mL
Murine leukemia L1210; 6.2 mg/kg i.p.
  T/C (%): 124%
Murine leukemia L1210; 12.5 mg/kg i.p.
  T/C (%): 170%
Murine leukemia L1210; 25 mg/kg i.p.
  T/C (%): 217%
Murine leukemia L1210; 50 mg/kg i.p.
  T/C (%): 283%
Murine leukemia L1210; 100 mg/kg i.p.
  T/C (%): 317%
[2]
  Solubility in water: 2000 µg/mL
ICR mice; female, 160 mg/kg i.p.
  Number of dead mice for 7 days: 0/6
  Number of dead mice, 1st day: 0/6
ICR mice; female, 208 mg/kg i.p.
  Number of dead mice for 7 days: 0/6
  Number of dead mice, 1st day: 0/6
ICR mice; female, 270 mg/kg i.p.
  Number of dead mice for 7 days: 1/6
  Number of dead mice, 1st day: 0/6
  Number of dead mice, 5th day: 1/6
  Lethality: 16.7
ICR mice; female, 352 mg/kg i.p.
  Number of dead mice for 7 days: 4/6
  Number of dead mice, 1st day: 0/6
  Number of dead mice, 3rd day: 2/6
  Number of dead mice, 4th day: 2/4
  Lethality: 66.7
ICR mice; female, 457 mg/kg i.p.
  Number of dead mice for 7 days: 6/6
  Number of dead mice, 1st day: 0/6
  Number of dead mice, 2nd day: 4/6
  Number of dead mice, 3rd day: 2/2
  Lethality: 100.0
ICR mice; male, 160 mg/kg i.p.
  Number of dead mice for 7 days: 0/6
  Number of dead mice, 1st day: 0/6
ICR mice; male, 208 mg/kg i.p.
  Number of dead mice for 7 days: 1/6
  Number of dead mice, 1st day: 0/6
  Number of dead mice, 3rd day: 1/6
  Lethality: 16.7
ICR mice; male, 270 mg/kg i.p.
  Number of dead mice for 7 days: 2/6
  Number of dead mice, 1st day: 0/6
  Number of dead mice, 4th day: 2/6
  Lethality: 33.3
ICR mice; male, 352 mg/kg i.p.
  Number of dead mice for 7 days: 4/6
  Number of dead mice, 1st day: 0/6
  Number of dead mice, 2nd day: 1/6
  Number of dead mice, 3rd day: 3/5
  Lethality: 66.7
ICR mice; male, 457 mg/kg i.p.
  Number of dead mice for 7 days: 6/6
  Number of dead mice, 1st day: 0/6
  Number of dead mice, 2nd day: 2/6
  Number of dead mice, 3rd day: 4/4
  Lethality: 100.0
